Results on 42 molecules are retold here after US8143259B2, “Cold menthol receptor antagonists” (Janssen Pharmaceutica, NV, priority 2008, dated 2012).

Usually inhibition stands for the drop in the measured response relative to a control, in per cent. In general, IC50 refers to the concentration at which inhibition is half-maximal.

Values joined by “and” are separate entries in the source; they are usually repeats but may differ in a detail not shown here. Identical values can stand only once.

This assay addresses T1, canine TRPM8 (Canis lupus familiaris, UniProt Q1A7N1).
T1 construct: expressed in transfected cells
Kind of assay: In Vitro Canine TRPM8 Functional Assay (Ca2+ fluorescence, icilin activation). It is filed as cell-based. The settings on record: for inhibition at 0.2 µM: HEK293, 0.2 μM compound; for IC50: HEK293 cells stably expressing canine TRPM8, icilin activation, Ca2+ fluorescence; for inhibition at 1 µM: HEK293, 1 μM compound; for % Inh @ 0.2 μM: 0.2 μM compound; for % Inh @ 0.5 μM: 0.5 μM compound; for inhibition at 0.5 µM: HEK293, 0.5 μM compound. Here is the method:
The functional activity of compounds of the formula (I) was determined by measuring changes in intracellular calcium concentration using a Ca^2+-sensitive fluorescent dye. The changes in fluorescent signal were monitored by a fluorescence plate reader, either a FLIPR™ (Molecular Devices) or FDSS (Hamamatsu). Increases in intracellular Ca^2+ concentration were readily detected upon activation with icilin.
HEK293 cells stably expressing canine TRPM8 were routinely grown as monolayers in Dulbecco's minimum essential medium supplemented with 10% FBS, 2 mM L-glutamine, 100 units/mL penicillin, 100 ug/mL streptomycin and 400 μg/mL G418. Cells were maintained in 5% CO2 at 37° C. At 24 hrs prior to assay, cells were seeded in black wall, clear-base poly-D-lysine coated 384-well plates (BD Biosciences, NJ, USA) at a density of 5,000 cells per well in culture medium and grown overnight in 5% CO2 at 37° C. On assay day, growth media was removed and cells were loaded with Calcium 3 Dye (Molecular Devices) for 35 min at 37° C., under 5% CO2 and then for 25 min at room temperature and atmosphere. Subsequently, cells were tested for agonist-induced increases in intracellular Ca^2+ levels using FLIPR™ or FDSS. Cells were challenged with compounds of the formula (I) (at varying concentrations) and intracellular Ca^2+ was measured for 5 min prior to the addition of icilin to all wells to achieve a final concentration that produces approximately an 80% maximal response.
Maximal fluorescence intensity (FI) achieved upon addition of icilin was exported from the FLIPR or FDSS software and further analyzed using GraphPad Prism 3.02 (Graph Pad Software Inc., CA, U.S.A.). Basal FI was subtracted prior to normalizing data to percent of maximal response. Curves were generated using the average of quadruplicate wells for each data point, were analyzed using nonlinear regression of either sigmoidal dose response or sigmoidal dose response (variable slope).

[1] abbreviates: canine TRPM8 HEK293, icilin, 0.2 µM.

T1 sequence (Q1A7N1 1-1104): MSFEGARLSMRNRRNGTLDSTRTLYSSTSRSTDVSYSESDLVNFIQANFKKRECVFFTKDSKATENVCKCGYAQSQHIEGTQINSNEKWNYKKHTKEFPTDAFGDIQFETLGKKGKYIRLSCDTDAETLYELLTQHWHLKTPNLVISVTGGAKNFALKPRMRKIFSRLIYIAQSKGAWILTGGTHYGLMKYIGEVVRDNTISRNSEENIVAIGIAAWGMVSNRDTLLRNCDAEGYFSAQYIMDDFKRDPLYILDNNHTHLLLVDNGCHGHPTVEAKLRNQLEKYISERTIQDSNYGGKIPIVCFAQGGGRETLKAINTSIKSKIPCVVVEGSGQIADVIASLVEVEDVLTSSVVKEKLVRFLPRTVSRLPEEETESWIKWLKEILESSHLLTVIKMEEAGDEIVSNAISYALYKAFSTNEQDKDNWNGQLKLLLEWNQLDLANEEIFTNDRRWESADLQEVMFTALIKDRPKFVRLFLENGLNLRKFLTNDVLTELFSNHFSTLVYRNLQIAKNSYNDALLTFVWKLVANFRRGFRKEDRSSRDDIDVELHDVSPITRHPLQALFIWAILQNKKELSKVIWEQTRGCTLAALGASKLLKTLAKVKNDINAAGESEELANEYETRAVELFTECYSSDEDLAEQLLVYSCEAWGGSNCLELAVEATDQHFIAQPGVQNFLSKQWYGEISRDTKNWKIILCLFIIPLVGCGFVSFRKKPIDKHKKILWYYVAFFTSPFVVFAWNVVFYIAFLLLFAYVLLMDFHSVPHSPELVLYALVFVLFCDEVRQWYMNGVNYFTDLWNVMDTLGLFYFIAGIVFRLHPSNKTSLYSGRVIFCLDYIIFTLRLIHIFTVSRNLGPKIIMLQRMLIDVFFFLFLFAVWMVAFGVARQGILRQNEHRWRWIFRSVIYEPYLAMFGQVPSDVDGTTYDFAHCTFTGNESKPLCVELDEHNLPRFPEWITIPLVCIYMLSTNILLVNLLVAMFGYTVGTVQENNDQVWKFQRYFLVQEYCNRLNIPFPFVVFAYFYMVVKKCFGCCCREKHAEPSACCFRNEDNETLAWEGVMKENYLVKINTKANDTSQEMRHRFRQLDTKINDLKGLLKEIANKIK

As for `COC(=O)c1cccc(C2CCCN2C(=O)C(Nc2ccccc2F)c2cc3ccccc3s2)c1` (stereo not drawn) [Cpd 324, 3-{1-[2-Benzo[b]thiophen-2-yl-2-(2-fluoro-phenylamino)-acetyl]-pyrrolidin-2-yl}-benzoic acid methyl ester], the midpoint of inhibition, the IC50, lay at 0.028 µM. For the same molecule, the inhibition at 0.2 µM (canine TRPM8 HEK293, icilin) was determined as 101%.
`CC(C)(C)c1ccc(C(Nc2ccccc2)C(=O)N2CCC[C@H]2CNc2ccccc2)cc1` (single isomer, unassigned) [Cpd 10] showed an IC50 of 0.517 µM. Moreover, the inhibition at 1 µM (canine TRPM8 HEK293, icilin) is 102%.
`O=C(C(Nc1ccccc1F)c1ccc(C(F)(F)F)cc1)N1CCCC1c1cncc(Br)c1` (single isomer, unassigned) [Cpd 346] displayed an IC50 of 0.038 µM. Further, the “% Inh @ 0.2 μM” value under setting [1] is 97%.
Turning to `O=C(C(Nc1ccccc1)c1cnc2ccccc2c1)N1CCCC1c1ccccc1F` (stereo not drawn) [Cpd 226], 0.0425 µM corresponded to half-maximal inhibition (IC50).
Molecule `O=C([C@H](Nc1c(F)cccc1F)c1ccc(Br)cc1)N1[C@H](CO)CC[C@@H]1c1ccccc1` (single isomer, unassigned) [Cpd 243] came in with a concentration for half-maximal inhibition (IC50) of 0.133 µM. Moreover, the inhibition at 0.2 µM (canine TRPM8 HEK293, icilin) was 88%.
As to `O=C(C(Nc1ccccc1Cl)c1ccc(C(F)(F)F)cc1)N1CCc2ccccc21` (racemic) [Cpd 37], the “% Inh @ 0.5 μM” value (canine TRPM8 HEK293, icilin) is 49.878%.
With `O=C(C(Nc1ccccc1F)c1ccc(-c2cncnc2)cc1)N1CCCC1c1ccccc1F` (stereo not drawn) [Cpd 288], the IC50 was 0.009 µM and 0.01 µM. The “% Inh @ 0.2 μM” value under setting [1] was found to be 95%. For the same molecule, for the setting “canine TRPM8 HEK293, icilin”, the inhibition at 0.2 µM was found to be 91%.
Molecule `O=C(C(Nc1ccccc1F)c1ccc(Br)cc1)N1CCCc2ccccc21` (stereo not drawn) [Cpd 365] displayed an IC50 of 0.03 µM. Also, where the note is “canine TRPM8 HEK293, icilin”, the inhibition at 0.2 µM is 94%.
`O=C(C(c1ccc(C(F)(F)F)cc1)N1CCCc2ccccc21)N1CCCC1c1ccccc1F` (mixture of isomers) [Cpd 292]: the “% Inh @ 0.2 μM” value (canine TRPM8 HEK293, icilin) is 45%.
For `O=C(C(Nc1c(F)cccc1F)c1cc2ccccc2s1)N1CCCC1c1ccccc1F` (stereo not drawn) [Cpd 361], the half-maximal inhibitory concentration (IC50) turned out to be 0.008 µM. Under “canine TRPM8 HEK293, icilin”, the inhibition at 0.2 µM turned out to be 96%.
On to `O=C(C(CNc1ccccc1F)c1ccc(C(F)(F)F)cc1)N1CCCC1c1ccccc1` (stereo not drawn) [Cpd 108], for which the concentration for half-maximal inhibition (IC50) stood at 0.329 µM. For the same molecule, the inhibition at 0.5 µM (canine TRPM8 HEK293, icilin) came to 88%.
With `O=C(N1CCCC1c1ccccc1)C1(c2ccc(C(F)(F)F)cc2)CCc2ccccc2N1` (stereo not drawn) [Cpd 194, (2-Phenyl-pyrrolidin-1-yl)-[2-(4-trifluoromethyl-phenyl)-1,2,3,4-tetrahydro-quinolin-2-yl]-methanone], the IC50 is 0.16 µM. Moreover, the inhibition at 0.2 µM (canine TRPM8 HEK293, icilin) is 70%.
Molecule `O=C(C(Nc1ccccc1)c1ccc(C(F)(F)F)cc1)N1CCCC1c1nccs1` (stereo not drawn) [Cpd 49] had an IC50 of 0.0783 µM. The inhibition at 0.5 µM (canine TRPM8 HEK293, icilin) came out at 102%.
The like results for `O=C(C(Nc1ccccc1)c1ccc(C(F)(F)F)cc1)N1CCCC1c1ccco1` (stereo not drawn) [Cpd 52] were, in that order, 0.0198 µM and 97.8%.
The like results for `O=C(C(Nc1ccccc1)c1ccc(C(F)(F)F)cc1)N1CCCC1c1ccccc1C(F)(F)F` (single isomer, unassigned) [Cpd 30] were, in that order, 0.11 µM and 103%.
In turn, `O=C(C(Nc1cc(F)ccc1F)c1ccc(Cl)cc1)N1CCCC1c1ccccc1F` (stereo not drawn) [Cpd 170] showed an IC50 of 0.0265 µM. In addition, the inhibition at 0.2 µM (canine TRPM8 HEK293, icilin) was determined as 100%.
As for `O=C(C(Nc1ccccc1F)c1ccc(-c2cccnc2)cc1)N1CCCC1c1ccccc1F` (mixture of isomers) [Cpd 300], the IC50 is 0.006 µM and 0.008 µM. The “% Inh @ 0.2 μM” value under setting [1] is 101% and 102%.
On to `O=C(C(Nc1ccccc1F)c1ccc(C(F)(F)F)cc1)N1CCc2ccccc21` (stereo not drawn) [Cpd 36], for which the IC50 amounted to 0.459 µM. For the same molecule, for the setting “canine TRPM8 HEK293, icilin”, the inhibition at 0.5 µM was determined as 90.7%.
Molecule `O=C(C(Nc1ccccc1F)c1ccc(Br)cc1)N1[C@@H](CO)CC[C@H]1c1ccccc1` (single isomer, unassigned) [Cpd 242] registered an IC50 of 0.0655 µM.
For `COC(=O)C1CCC(c2ccccc2)N1C(=O)C(Nc1ccccc1F)c1ccc(Br)cc1` (stereo not drawn) [Cpd 195], the “% Inh @ 0.2 μM” value under setting [1] is 32%.
For the molecule `Nc1ccc(C2CCCN2C(=O)C(Nc2ccccc2F)c2ccc(Cl)cc2)cc1` (stereo not drawn) [Cpd 290], the IC50 is 0.002 µM. The inhibition at 0.2 µM (canine TRPM8 HEK293, icilin) is 98%.
In turn, `O=C(C(Nc1ccccc1F)c1cc2ccccc2s1)N1CCCC1c1cccnc1` (stereo not drawn) [Cpd 319] registered a concentration for half-maximal inhibition (IC50) of 0.025 µM. Further, the inhibition at 0.2 µM (canine TRPM8 HEK293, icilin) came to 94%.
The like results for `O=C(C(Nc1c(F)cccc1F)c1ccc(Cl)cc1)N1CCCc2ccccc21` (stereo not drawn) [Cpd 366] were, in that order, 0.046 µM and 98%.
The corresponding values for `CCOC(=O)c1ccc(C(Nc2c(F)cccc2F)C(=O)N2CCC[C@H]2c2ccccc2F)cc1` (stereo partly drawn) [Cpd 183, 4-{1-(2,6-Difluoro-phenylamino)-2-[(2S)-2-(2-fluoro-phenyl)-pyrrolidin-1-yl]-2-oxo-ethyl}-benzoic acid ethyl ester] are 0.01 µM and 99%.
`O=C(C(Nc1c(F)cccc1F)c1ccc(Br)cc1)N1CCCC1c1ccccc1F` (single isomer, unassigned) [Cpd 162] had an IC50 of 0.00545 µM. Moreover, the “% Inh @ 0.2 μM” value under setting [1] stood at 100%. Moreover, the “% Inh @ 0.5 μM” value (canine TRPM8 HEK293, icilin, 0.5 µM) turned out to be 99%.
Regarding `O=C(C(Nc1ccccc1F)c1ccc2c(c1)CCO2)N1CCCC1c1cccnc1` (racemic) [Cpd 282], the “% Inh @ 0.2 μM” value (canine TRPM8 HEK293, icilin) came out at 17%.
`COc1ccccc1C1CCCN1C(=O)C(Nc1ccccc1F)c1cnc2ccccc2c1` (single isomer, unassigned) [Cpd 277] returned an IC50 of 0.008 µM. For the same molecule, the inhibition at 0.2 µM (canine TRPM8 HEK293, icilin) came out at 101%.
In the case of `O=C(C(c1ccc(C(F)(F)F)cc1)N1CCCc2ccccc21)N1CCCC1c1cccnc1` (mixture of isomers) [Cpd 336], where the note is “canine TRPM8 HEK293, icilin”, the “% Inh @ 0.2 μM” value turned out to be 43%.
Take `O=C(C(Nc1ccccc1F)c1ccc(Br)cc1)N1CCCC1c1ccccc1F` (single isomer, unassigned) [Cpd 159]: the IC50 was 0.109 µM and 0.038 µM. In addition, under “canine TRPM8 HEK293, icilin”, the inhibition at 0.2 µM turned out to be 97% and the inhibition at 0.5 µM stood at 94%.
As to `COc1ccccc1C1CCCN1C(=O)C(Nc1ccccc1)c1ccc(Cl)cc1` (stereo not drawn) [Cpd 85], it took 0.006 µM to reach half-maximal inhibition (IC50). The inhibition at 0.5 µM (canine TRPM8 HEK293, icilin) turned out to be 97%.
`CC(C)(C)c1ccc(C(Nc2ccccc2)C(=O)N2CCCC2c2ccccc2)cc1` (stereo not drawn) [Cpd 12] came in with an IC50 of 0.0606 µM. In addition, where the note is “canine TRPM8 HEK293, icilin”, the inhibition at 1 µM came to 103%.
As to `O=C(C(Nc1c(F)cccc1F)c1ccc(Cl)cc1)N1CCCC1c1ccccc1F` (stereo not drawn) [Cpd 144], the IC50 was found to be 0.011 µM. Where the note is “canine TRPM8 HEK293, icilin”, the inhibition at 0.5 µM turned out to be 102%.
`O=C(C(Nc1ccccc1)c1ccc(C(F)(F)F)cc1)N1CCCC1c1ccccc1Cl` (single isomer, unassigned) [Cpd 369]: the “% Inh @ 0.5 μM” value (canine TRPM8 HEK293, icilin) worked out at 7.773%. Besides, the “% Inh @ 3 μM” value (3 μM compound, canine TRPM8 HEK293, icilin) amounted to 48%.
For the molecule `COc1ccccc1C1CCCN1C(=O)C(Nc1ccccc1F)c1cnc2ccccc2c1` (single isomer, unassigned) [Cpd 278], the IC50 is 0.031 µM and 0.036 µM. In addition, the “% Inh @ 0.2 μM” value under setting [1] is 94% and 101%.
`O=C(C(Nc1ccccc1F)c1ccc(Cl)cc1)N1Cc2cccc(F)c2C1` (stereo not drawn) [Cpd 114] gave an IC50 of 0.126 µM. For the same molecule, the inhibition at 0.5 µM (canine TRPM8 HEK293, icilin) turned out to be 98%.
As for `CC(C)(C)c1ccc(C(Nc2ccccc2)C(=O)N2CCCC2c2ccccc2Cl)cc1` (single isomer, unassigned) [Cpd 2], the midpoint of inhibition, the IC50, lay at 0.0726 µM. In addition, under “1 μM compound, canine TRPM8 HEK293, icilin, 1 µM”, the “% Inh @ 1 μM” value is given as 100.93%.
`O=C(C(Nc1cc(F)ccc1F)c1ccc(Cl)cc1)N1CCCC1c1ccccc1Cl` (stereo not drawn) [Cpd 171] registered an IC50 of 0.0418 µM. In addition, under “canine TRPM8 HEK293, icilin”, the inhibition at 0.2 µM amounted to 98%.
For the molecule `O=C(C(Nc1ccccc1F)c1ccc(Br)cc1)N1CCc2ccccc2C1` (stereo not drawn) [Cpd 93], inhibition was half-maximal at 0.176 µM (IC50). Further, the inhibition at 0.5 µM (canine TRPM8 HEK293, icilin) stood at 95%.
For `COc1ccccc1C1CCCN1C(=O)C(Nc1ccccc1F)c1ccc(C(F)(F)F)cc1` (stereo not drawn) [Cpd 148], half-maximal inhibition (IC50) was put at 0.012 µM. For the same molecule, the inhibition at 0.5 µM (canine TRPM8 HEK293, icilin) was 99%.
Consider `CC(=O)N(c1ccccc1F)[C@H](C(=O)N1CCC[C@H]1c1ccccc1F)c1ccc(C(F)(F)F)cc1` [Cpd 318, N-(2-Fluoro-phenyl)-N-[2-[(2S)-2-(2-fluoro-phenyl)-pyrrolidin-1-yl]-2-oxo-(1S)-1-(4-trifluoromethyl-phenyl)-ethyl]-acetamide], for which the inhibition at 0.2 µM (canine TRPM8 HEK293, icilin) amounted to 47%.
`O=C(C(Nc1ccccc1F)c1ccc(C(F)(F)F)cc1)N1CCCC1c1cccc(F)c1` (single isomer, unassigned) [Cpd 133] displayed an IC50 of 0.0209 µM. Moreover, the inhibition at 0.5 µM (canine TRPM8 HEK293, icilin) was 98%.
As for `O=C(C(Nc1ccccc1)c1ccccn1)N1CCCC1c1ccccc1F` (stereo not drawn) [Cpd 217], under setting [1], the “% Inh @ 0.2 μM” value came to 26%.
